Marks after values point to notes of the source that are not given here.
System: EGFP-LA795 cells
Assay: Inhibitory effect of chlorogenic acid on metastasis in LA795 lung cancer mice
Type: in vivo, T739 mice
Details: for Abdominal metastasis / Axial bone metastasis / Bloody ascites / Brain metastasis / Limb bone metastasis / Local lymph node metastasis: once a day for 20 days, mice with finding/n = 10
Description: (1) Animals: T739 mice, half male and half female, weighing 18-22 g, are provided by the Experimental Animal Center of Sichuan University.
(2) Lung cancer cell lines: LA795, provided by Wuhan Procell Life Technology Co., Ltd.; Fetal bovine serum, provided by Hangzhou Sijiqing Bioengineering Materials Co., Ltd.; plasmid EGFP-C1, provided by Clontech; Liposome transfection reagent Lipofectamin 2000, provided by Invitrogen.
LA795 cells were inoculated in a 6-well culture plate at 1×10^7 cells/mL, using DMEM complete medium containing 10% fetal bovine serum, and cultured in a 37° C., 5% CO2 incubator. When the cells were about 70% fused, liposome transfection reagent lipid Lipofectamin2000 was used and LA795 cells were transfected into plasmid EGFP-C1. 48 h after transfection, cells were passed and screened by G 418, then anti-G418 fluorescent positive clones appeared after about 4 weeks. Clones were observed under fluorescent inverted microscope, and one resistant fluorescent cell clone was randomly picked and transferred to 96-well plate for culture. After stepwise expansion, cells were routinely cultured and passaged. 400 μg/ml G418 was used to maintain screening and obtain expanded EGFP-LA795 cells. When EGFP-LA795 cells are 80%-90% fused in the logarithmic growth phase, they are digested with 0.25% trypsin, then centrifuged, and the cells are resuspended in DMEM to prepare a cell suspension for seeding (cell concentration 1×10^7 cells/mL). EGFP-LA795 cells grown on the wall were trypsinized to prepare a single cell suspension, and then diluted appropriately. The cell suspension was mixed with 0.4% trypan blue solution and counted under the microscope. The survival rate of EGFP-LA795 cells was >90%, and the positive clones were picked out under an inverted fluorescence microscope, followed by culture and amplification, to obtain LA795 cells with green fluorescence.
0.2 ml of EGFP-LA795 cell suspension at 1.0×10^7 cells/ml was inoculated into the armpit of mice, and then the mice were randomly divided into groups, 10 mice for each group, including the high-dose chlorogenic acid group, the middle-dose chlorogenic acid group, and the low-dose chlorogenic acid group and the model control group. Chlorogenic acid was administered by intraperitoneal injection, 40 mg/kg for the high-dose group, 20 mg/kg for the middle-dose group, 10 mg/kg for the low-dose group, and the administration volume was 1.0 ml; the model control group was given the same volume of normal saline by intraperitoneal injection, once a day for 20 days. In vivo imaging observations were performed on days 0, 10, and 20, respectively. After the test, the mice were sacrificed by cervical dislocation, and peripheral lymph nodes, axial bones, and long bones of the limbs were taken to observe and count metastases.
10% chloral hydrate was intraperitoneally injected at 4 ml/kg for anesthetization, and mice were put on the black rubber pad prepared for the in vivo imager. The irradiation conditions were GFP, the emission wavelength was 520 nm, the excitation wavelength was 480 nm, and the exposure time was 5 ms. The volume changes and metastasis of the tumor were observed.
Surrounding lymph nodes were taken out, and 8 μm conventional and frozen sections were obtained, and routinely stained with hematoxylin-eosin (HE) every other one, to observe the tumor metastasis under fluorescence microscope and light microscope.
Axial bones (such as ribs, spine, ilium, scapula) and long bones of the limbs of mice were chosen, cut into 0.5 cm×0.3 cm×0.3 cm bone pieces, and fixed with frozen 4% paraformaldehyde solution at 5° C. for 12 h-24 h; the bones were rinsed with phosphate buffer and decalcified with EDTA until the bone slices were completely decalcified. […]

[1] = high dose group, 40 mg/kg intraperitoneal injection
[2] = low dose group, 10 mg/kg intraperitoneal injection
[3] = medium dose group, 20 mg/kg intraperitoneal injection

With O=C(/C=C/c1ccc(O)c(O)c1)O[C@@H]1C[C@](O)(C(=O)O)C[C@@H](O)[C@H]1O [Chlorogenic acid, chlorogenic acid] the “metastasis of LA795 lung cancer cells in mice” value (20 mg/kg medium-dose group) was “No metastasis was found”, the Abdominal metastasis [1] was 1/10* and the Axial bone metastasis [1] was 0/10*. For the same compound, the Bloody ascites [1] was 0/10*, the Brain metastasis [1] was 0/10* and the Limb bone metastasis [1] was 0/10*. The “Local lymph node metastasis” value [1] was 1/10*, the Abdominal metastasis [2] was 2/10* and the Axial bone metastasis [2] was 0/10*. For the same compound, the Bloody ascites [2] was 0/10*, the Brain metastasis [2] was 0/10* and the Limb bone metastasis [2] was 0/10*. The “Local lymph node metastasis” value [2] was 1/10*, the “number of metastatic foci in mice” value (low, medium and high dose groups versus model control group) was “significantly reduced” and the Abdominal metastasis [3] was 0/10*. For the same compound, the Axial bone metastasis [3] was 0/10*, the Bloody ascites [3] was 0/10* and the Brain metastasis [3] was 0/10*. For the same compound, the Limb bone metastasis [3] was 0/10* and the “Local lymph node metastasis” value [3] was 0/10*.

Source: US20210236449A1, “USE OF CHLOROGENIC ACID IN PREPARING DRUG FOR PREVENTING OR BLOCKING BRAIN AND/OR BONE METASTASES OF LUNG CANCER” (SICHUAN JIUZHANG BIOLOGICAL SCIENCE AND TECHNOLOGY CO., LTD, priority 2018, published 2021)
